According to patent US10336757B2, “Treatment of neurodegenerative diseases through inhibition of HSP90” (Sloan-Kettering Institute for Cancer Research, priority 2006, dated 2019):

Legend:
[1] = tested on: mTau expression and phosphorylation, p35; assay: 30 day Hsp90 inhibitor treatment of JNPL3 mice; type: in vivo; details: 30 days
Procedure: JNPL3 female mice 6.5 months of age were treated for 30 days, 5 day/week, with the Hsp90 inhibitor PU-DZ8 (FIG. 5) or vehicle, or sacrificed for time zero, n=4/group. Brains were divided in subcortical and cortical regions and processed using the Greenberg and Davies extraction protocol. (77) Sarkosyl soluble fractions (S1) were analyzed by WB for p35 and Hsp70, and for tau epitopes found abnormally hyperphosphorylated in AD brains such as: 5202 and T205 recognized by ATB, T181 by AT270, T231 by AT180. These are putative cdk5/p35 sites. Protein bands were normalized to Hsp90 and plotted as relative units. […].
To investigate whether modulation of mTau could be sustained over a longer Hsp90 inhibitor-treatment period, without being toxic to mice, JNPL3 mice were subjected for 30 days to these agents. Female JNPL3 mice 6.5 months of age (n=10) were administered i.p. vehicle (n=5) or one of the Hsp90 inhibitors, PU24FC1 (200 mg/kg) or PU-DZ8 (75 mg/kg) (n=5), on a daily, five-times per week schedule and animals were sacrificed at 8 h following the last administered dose of inhibitor. […] Furthermore, no visible internal organ damage was detected at sacrifice upon gross inspection. Both S1 and P3 fractions extracted from the subcortical brain region of these mice were analyzed for mTau expression and phosphorylation.

[2] = Experimentally determined logP by RP-HPLC; type: physicochemical; details: using RP-HPLC
Text: Compounds of this type may also be provided with a degradable or cleavable linker, such that monomeric agents are provided in vivo. In this embodiment, the dimeric form need not retain activity or the ability to cross the blood brain barrier, and the nature of the linker therefore is not relevant to activity, only to the ability to form active monomeric species. In general, moderately lipophilic drugs such as PUs cross the BBB by passive diffusion. A good structural understanding for the BBB permeability is still lacking, but several parameters are believed to facilitate such behavior. Lipophilicity was the first of the descriptors to be identified as important for CNS penetration. […] The mean value for ClogP for the marketed CNS drugs is 2.5. […] The rules for molecular weight in CNS drugs have been reviewed, where small molecules may undergo significant passive lipid-mediated transport through the blood brain barrier, when the molecular mass is kept in or below a 400- to 600-Da range (90). PU-DZ8 has a MW of 512. All the QSAR equations emphasize the importance of hydrogen bonding —CNS penetration requires 5 or less hydrogen bond acceptors (91). PU-DZ8 has 4. […] PSA has been used as a predictor for BBB penetration by many investigators (92). In general, drugs aimed at the CNS tend to have lower polar surface areas than other classes (93,94). […]

[3] = tested on: p35 and tau phosphorylation; assay: Five day PU-DZ8 treatment of nine-month old JNPL3 (P301L tau) mice, whole brain; type: in vivo
Text: Transgenic mice: Transgenic mice, JNPL3 line (59) overexpressing mutant human tau (P301L, 4R0N) were used in this study, Mice were heterozygous and on a mixed hybrid genetic background composed of C57BL/DBA2/SW, as published in ref. 59. These mice develop NFTs in the basal telencephalon, diencephalon, brainstem, and spinal cord, with severe pathology accompanied by degeneration in the spinal cord leading to dystonia, paralysis, and death in mice>12 months in age. Nine month-old male JNPL3 mice (n=2) were treated intraperitoneally with PU-DZ8 or vehicle for 5 days. Mice were sacrificed 12 h after last treatment by cervical dislocation under anesthesia.
To further examine the effect of Hsp90 on tau phosphorylation, we used the JNPL3 line of mice expressing mutant (P301L) tau protein (59). Genetic analyses have linked mutations in the tau gene to FTDP-17 (60, 61). Over 20 distinct pathogenic mutations have been identified, with P301L as the most common mutation in tauophaties (33). […] The tau protein in JNPL3 is predominantly human and is phosphorylated at multiple sites: T181 (AT270), S202/T205 (AT8), T212 (AT100), T231 (AT180), S262, S396/S404, S409 and 5422 (59, 62). […] The degree of p35 expression translated well into alleviation of phosphorylation. […] However, in mice where effects were more prominent and p35 expression declined to approximately 20% as compared to control, a significant effect on tau phosphorylation at S202/T205 and T212/S214 and a 50% reduction on T231 was observed. We could not detect a significant amount of tau phosphorylation at T181, site found to be hyperphosphorylated in PHF, tangles and neurofilaments (65). Again, whole brain expression of cdk5 was not affected (FIG. 3).

Compound: CC(C)NCCCn1c(Cc2cc3c(cc2I)OCO3)nc2c(N)nc(F)nc21 [PU-DZ8]
- toxicity (animal weight, fur appearance, appetite, posture) ([1]; five-times per week i.p., PU24FC1 200 mg/kg or PU-DZ8 75 mg/kg): No toxicity was observed
- Tau expression and phosphorylation in S1 and P3 fractions ([1]; subcortical brain region): significant reduction in Tau expression and phosphorylation
- p35 in S1 fraction ([1]; subcortical brain region): p35 reduction
- experimentally determined logP [2]: 1.53
- whole brain expression of cdk5 ([3]; 5 days i.p.): not affected
- compound levels in brain ([3]; 5 days i.p., 12 h after last treatment): Pharmacologically relevant levels
- p35 expression as compared to control ([3]; 5 days i.p., mice where effects were more prominent): approximately 20%
- reduction in p35 levels ([3]; 5 days i.p., whole brain): 50%
- tau phosphorylation at putative cdk5 sites S202/T205 and T212 ([3]; 5 days i.p., whole brain): significant amelioration
- phosphorylation on T212/S214 (Ab AT-100) ([3]; at 50% reduction in p35 levels): almost completely
- tau phosphorylated at T231 (Ab AT-180) ([3]; at a reduction by 50% in p35 expression): No significant effect
- reduction of tau phosphorylation on T231 ([3]; mice where p35 declined to approximately 20% of control): 50%
